Assay results from EP4631959A2, “NOVEL MINIGASTRIN-DERIVED CHOLECYSTOKININ 2 RECEPTOR BINDING MOLECULES FOR IMAGING AND TARGETED RADIOTHERAPY” (priority 2022, dated 2024).
Read-outs that look alike come from different tables or passages of the source. Starred links: 1 amine or outer side, 2 acyl side, 3 side chain; linkers in the order of their positions; H or OH if unused. Non-standard residues stand in square brackets, D forms with d. Residues, ends and D or L forms follow the SMILES beside them. *: point of attachment. DOTAGA = O=C(O)CN1CCN(CC(=O)O)CCN(C(CCC(=O)*)C(=O)O)CCN(CC(=O)O)CC1; X2 = O=C(O)CN1CCN(CC(=O)O)CCN([C@H](CCC(=O)*)C(=O)O)CCN(CC(=O)O)CC1; Benzoyl(4-SiFtBu2) = CC(C)(C)[Si](F)(c1ccc(C(=O)*)cc1)C(C)(C)C; DOTA = O=C(O)CN1CCN(CC(=O)O)CCN(CC(=O)*)CCN(CC(=O)O)CC1; d(γGlu) = O=C(O)[C@@H](CCC(=O)[*:2])N[*:1]; 1Nal = N[C@@H](Cc1cccc2ccccc12)C(=O)O; NMeNle = CCCC[C@H](NC)C(=O)O; Nle = CCCC[C@H](N)C(=O)O; dDap = NC[C@@H](N)C(=O)O

What was measured:
CCK-2R = molecular target: T1, CCK-2R (Rattus norvegicus, UniProt P30553); experiment: Determination of IC50: CCK-2R affinity on AR4-2J cells, competition with [^177Lu]Lu-DOTA-PP-F11N; type: binding; details: for IC50: AR4-2J cells
T1 construct: The CCK-2R expressing rat pancreatic tumor cells AR4-2J; host or cells: AR4-2J rat pancreatic tumor cells
T1 sequence (P30553 1-452): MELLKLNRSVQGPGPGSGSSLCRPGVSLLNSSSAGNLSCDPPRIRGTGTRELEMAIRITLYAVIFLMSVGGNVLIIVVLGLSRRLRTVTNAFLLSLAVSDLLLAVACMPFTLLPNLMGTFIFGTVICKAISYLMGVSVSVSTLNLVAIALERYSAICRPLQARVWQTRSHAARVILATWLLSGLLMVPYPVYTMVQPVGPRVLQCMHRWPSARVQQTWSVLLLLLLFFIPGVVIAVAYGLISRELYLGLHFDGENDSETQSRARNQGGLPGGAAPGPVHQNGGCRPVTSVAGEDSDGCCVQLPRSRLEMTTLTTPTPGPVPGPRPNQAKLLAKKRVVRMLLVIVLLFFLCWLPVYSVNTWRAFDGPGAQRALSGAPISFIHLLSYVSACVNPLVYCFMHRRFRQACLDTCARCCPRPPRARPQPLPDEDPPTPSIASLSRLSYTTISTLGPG
In short: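 Competitive displacement of 0.3 pmol/well [177Lu]Lu-DOTA-PP-F11N by compounds (10^-10 to 10^-4 M) on AR4-2J cells in BSA-supplemented medium, 3 h at 37 °C. Free label was collected from medium plus PBS rinse, and cell-bound label was recovered with 1 M NaOH, both measured by γ-counter. Each IC50 was determined twice, in triplicate.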

[1] = n-Octanol-PBS distribution coefficient (logD7.4); type: physicochemical; details: pH = 7.4, ^177Lu-labeled
Experimental: Approximately 1 MBq of the labeled tracer was dissolved in 1 mL of a 1/1 mixture (v/v) of phosphate buffered saline (PBS, pH = 7.4) and n-octanol in an Eppendorf tube (1.5 mL). After vigorous mixing of the suspension for 3 min at rt, the vial was centrifuged at 9,000 rpm for 5 min (Biofuge 15, Heraeus Sepatech, Osterode, Germany) and 200 µL aliquots of both layers were measured in a γ-counter. The experiment was repeated at least five times.

[2] = ^natLu-labeled, read-out: IC50 [nM] (n = 3), ^natLu-labeled
[3] = read-out: IC50 [nM] (n = 3), ^natLu-labeled, ^natLu-labeled

SMILES | IC50 (CCK-2R; references ^natLu-labeled, other peptides without chelator, read-out: IC50 [nM] (n = 3)) | IC50 value, fold lower than [^natLu]Lu-DOTA-PP-F11N (CCK-2R; ^natLu-labeled) | logD7.4 (n ≥ 5), ^177Lu-labeled [1] | IC50 (CCK-2R; [2]) | IC50 (CCK-2R; [3])
CCCC[C@H](NC(=O)[C@H](Cc1c[nH]c2ccccc12)NC(=O)CNC(=O)[C@H](Cc1ccc(O)cc1)NC(=O)[C@H](C)NC(=O)CC[C@@H](NC(=O)CC[C@@H](NC(=O)CC[C@@H](NC(=O)CC[C@@H](NC(=O)CC[C@@H](NC(=O)CC[C@@H](NC(=O)CN1CCN(CC(=O)O)CCN(CC(=O)O)CCN(CC(=O)O)CC1)C(=O)O)C(=O)O)C(=O)O)C(=O)O)C(=O)O)C(=O)O)C(=O)N[C@@H](CC(=O)O)C(=O)N[C@@H](Cc1ccccc1)C(N)=O [DOTA-PP-γ-F11N, DOTA-γ-glu^1-γ-glu^2-γ-glu^3-γ-glu^4-γ-glu^5-γ-glu^6-Ala^7-Tyr^8-Gly^9-Trp^10-Nle^11-Asp^12-Phe^13-NH2, reference compound] ({DOTA-d(γGlu)-d(γGlu)-d(γGlu)-d(γGlu)-d(γGlu)-d(γGlu)}-AYGW[Nle]DF-NH2) | 7.5 ± 0.5 nM | 1.7 fold | −4.38 ± 0.05 |  | 
CCCC[C@H](NC(=O)[C@H](Cc1c[nH]c2ccccc12)NC(=O)CNC(=O)[C@H](Cc1ccc(O)cc1)NC(=O)[C@H](C)NC(=O)CC[C@@H](NC(=O)CC[C@@H](NC(=O)[C@@H](CNC(=O)c1ccc([Si](F)(C(C)(C)C)C(C)(C)C)cc1)NC(=O)CC[C@@H](NC(=O)CC[C@@H](NC(=O)CC[C@@H](NC(=O)CC[C@@H](NC(=O)CC[C@H](C(=O)O)N1CCN(CC(=O)O)CCN(CC(=O)O)CCN(CC(=O)O)CC1)C(=O)O)C(=O)O)C(=O)O)C(=O)O)C(=O)O)C(=O)O)C(=O)N[C@@H](CC(=O)O)C(=O)N[C@@H](Cc1ccccc1)C(N)=O [DOTAGA-MG-SiFA-15, DOTAGA-γ-glu-[dap(SiFA)^4]γ-F11N] ({X2-d(γGlu)-d(γGlu)-d(γGlu)-d(γGlu)}-[dDap](Benzoyl(4-SiFtBu2))[d(γGlu)][d(γGlu)]AYGW[Nle]DF-NH2) |  |  | −2.34 ± 0.05 | 89.7 ± 14.5 nM | 
CCCC[C@H](NC(=O)[C@H](Cc1c[nH]c2ccccc12)NC(=O)CNC(=O)[C@H](Cc1ccc(O)cc1)NC(=O)[C@H](C)NC(=O)CC[C@@H](NC(=O)CC[C@@H](NC(=O)CC[C@@H](NC(=O)CC[C@@H](NC(=O)[C@@H](CNC(=O)c1ccc([Si](F)(C(C)(C)C)C(C)(C)C)cc1)NC(=O)CC[C@@H](NC(=O)CC[C@@H](NC(=O)CCC(C(=O)O)N1CCN(CC(=O)O)CCN(CC(=O)O)CCN(CC(=O)O)CC1)C(=O)O)C(=O)O)C(=O)O)C(=O)O)C(=O)O)C(=O)O)C(=O)N[C@@H](CC(=O)O)C(=O)N[C@@H](Cc1ccccc1)C(N)=O (stereo partly drawn) [DOTAGA-MG-SiFA-17, DOTAGA-γ-glu-[dap(SiFA)^2]γ-F11N] ({DOTAGA-d(γGlu)-d(γGlu)}-[dDap](Benzoyl(4-SiFtBu2))[d(γGlu)][d(γGlu)][d(γGlu)][d(γGlu)]AYGW[Nle]DF-NH2) |  |  | −2.26 ± 0.05 |  | 51.3 ± 9.3 nM
CCCC[C@H](NC(=O)[C@H](Cc1c[nH]c2ccccc12)NC(=O)CNC(=O)[C@H](Cc1ccc(O)cc1)NC(=O)[C@H](C)NC(=O)[C@@H](CCC(=O)O)NC(=O)[C@@H](CCC(=O)O)NC(=O)[C@@H](CCC(=O)O)NC(=O)[C@@H](CNC(=O)c1ccc([Si](F)(C(C)(C)C)C(C)(C)C)cc1)NC(=O)[C@@H](CCC(=O)O)NC(=O)[C@@H](CCC(=O)O)NC(=O)[C@@H](CCC(=O)O)NC(=O)CCC(C(=O)O)N1CCN(CC(=O)O)CCN(CC(=O)O)CCN(CC(=O)O)CC1)C(=O)N[C@@H](CC(=O)O)C(=O)N[C@@H](Cc1ccccc1)C(N)=O (stereo partly drawn) [DOTAGA-MG-SiFA-8, DOTAGA-glu-[dap(SiFA)^3]F11N] ({DOTAGA}-[dE][dE][dE][dDap](Benzoyl(4-SiFtBu2))[dE][dE][dE]AYGW[Nle]DF-NH2) |  |  | −2.19 ± 0.08 |  | 185 ± 14 nM
CCCC[C@H](NC(=O)[C@H](Cc1c[nH]c2ccccc12)NC(=O)CNC(=O)[C@H](Cc1ccc(O)cc1)NC(=O)[C@H](C)NC(=O)CC[C@@H](NC(=O)CC[C@@H](NC(=O)CC[C@@H](NC(=O)CC[C@@H](NC(=O)CC[C@@H](NC(=O)[C@@H](CNC(=O)c1ccc([Si](F)(C(C)(C)C)C(C)(C)C)cc1)NC(=O)CC[C@@H](NC(=O)CC[C@@H](NC(=O)CC[C@@H](NC(=O)CC[C@@H](NC(=O)CCC(C(=O)O)N1CCN(CC(=O)O)CCN(CC(=O)O)CCN(CC(=O)O)CC1)C(=O)O)C(=O)O)C(=O)O)C(=O)O)C(=O)O)C(=O)O)C(=O)O)C(=O)O)C(=O)O)C(=O)N[C@@H](CC(=O)O)C(=O)N[C@@H](Cc1ccccc1)C(N)=O (stereo partly drawn) [DOTAGA-MG-SiFA-26, DOTAGA-(γ-glu)4-[dap(SiFA)^1]γ-F11N] ({DOTAGA-d(γGlu)-d(γGlu)-d(γGlu)-d(γGlu)}-[dDap](Benzoyl(4-SiFtBu2))[d(γGlu)][d(γGlu)][d(γGlu)][d(γGlu)][d(γGlu)]AYGW[Nle]DF-NH2) |  |  | −2.89 ± 0.04 |  | 37.1 ± 3.8 nM
CCCC[C@H](NC(=O)[C@H](Cc1c[nH]c2ccccc12)NC(=O)CNC(=O)[C@H](Cc1ccc(O)cc1)NC(=O)[C@H](C)NC(=O)[C@@H](CCC(=O)O)NC(=O)[C@@H](CNC(=O)c1ccc([Si](F)(C(C)(C)C)C(C)(C)C)cc1)NC(=O)[C@@H](CCC(=O)O)NC(=O)[C@@H](CCC(=O)O)NC(=O)[C@@H](CCC(=O)O)NC(=O)[C@@H](CCC(=O)O)NC(=O)[C@@H](CCC(=O)O)NC(=O)CCC(C(=O)O)N1CCN(CC(=O)O)CCN(CC(=O)O)CCN(CC(=O)O)CC1)C(=O)N[C@@H](CC(=O)O)C(=O)N[C@@H](Cc1ccccc1)C(N)=O (stereo partly drawn) [DOTAGA-MG-SiFA-6, DOTAGA-glu-[dap(SiFA)^5]F11N] ({DOTAGA}-[dE][dE][dE][dE][dE][dDap](Benzoyl(4-SiFtBu2))[dE]AYGW[Nle]DF-NH2) |  |  | −1.95 ± 0.09 |  | 155 ± 18 nM
CCCC[C@H](NC(=O)[C@H](Cc1c[nH]c2ccccc12)NC(=O)CNC(=O)[C@H](Cc1ccc(O)cc1)NC(=O)[C@H](C)NC(=O)[C@@H](CCC(=O)O)NC(=O)[C@@H](CCC(=O)O)NC(=O)[C@@H](CCC(=O)O)NC(=O)[C@@H](CCC(=O)O)NC(=O)[C@@H](CNC(=O)c1ccc([Si](F)(C(C)(C)C)C(C)(C)C)cc1)NC(=O)[C@@H](CCC(=O)O)NC(=O)[C@@H](CCC(=O)O)NC(=O)CCC(C(=O)O)N1CCN(CC(=O)O)CCN(CC(=O)O)CCN(CC(=O)O)CC1)C(=O)N[C@@H](CC(=O)O)C(=O)N[C@@H](Cc1ccccc1)C(N)=O (stereo partly drawn) [DOTAGA-MG-SiFA-9, DOTAGA-glu-[dap(SiFA)^2]F11N] ({DOTAGA}-[dE][dE][dDap](Benzoyl(4-SiFtBu2))[dE][dE][dE][dE]AYGW[Nle]DF-NH2) |  |  | −2.67 ± 0.05 |  | 90 ± 2.3 nM
CCCC[C@H](NC(=O)[C@H](Cc1c[nH]c2ccccc12)NC(=O)CNC(=O)[C@H](Cc1ccc(O)cc1)NC(=O)[C@H](C)NC(=O)CC[C@@H](NC(=O)CC[C@@H](NC(=O)CC[C@@H](NC(=O)CC[C@@H](NC(=O)CC[C@@H](NC(=O)CC[C@@H](NC(=O)CC[C@@H](NC(=O)CC[C@@H](CO)NC(=O)[C@@H](CNC(=O)c1ccc([Si](F)(C(C)(C)C)C(C)(C)C)cc1)NC(=O)CN1CCN(CC(=O)O)CCN(CC(=O)O)CCN(CC(=O)O)CC1)C(=O)O)C(=O)O)C(=O)O)C(=O)O)C(=O)O)C(=O)O)C(=O)O)C(=O)N[C@@H](CC(=O)O)C(=O)N[C@@H](Cc1ccccc1)C(N)=O [DOTA-MG-SiFA-29, DOTA-dap(SiFA)-Glutamol-(γ-glu)7-F11N] |  |  | −1.88 ± 0.07 |  | 6.55 ± 1.23 nM
CCCC[C@@H](C(=O)N[C@@H](CC(=O)O)C(=O)N[C@@H](Cc1cccc2ccccc12)C(N)=O)N(C)C(=O)[C@H](Cc1c[nH]c2ccccc12)NC(=O)CNC(=O)[C@H](Cc1ccc(O)cc1)NC(=O)CNC(=O)CNC(=O)CN1CCN(CC(=O)O)CCN(CC(=O)O)CCN(CC(=O)O)CC1 [DOTA-CCK-56, DOTA-(Gly)2-Tyr-Gly-Trp-(N-Me)NIe-Asp-1-Nal-NH2] ({DOTA}-GGYGW[NMeNle]D[1Nal]-NH2) |  |  | −1.38 ± 0.07 | 4.9 ± 0.8 nM | 
CCCC[C@H](NC(=O)[C@H](Cc1c[nH]c2ccccc12)NC(=O)CNC(=O)[C@H](Cc1ccc(O)cc1)NC(=O)[C@H](C)NC(=O)CC[C@@H](NC(=O)CC[C@@H](NC(=O)CC[C@@H](NC(=O)CC[C@@H](NC(=O)CC[C@@H](NC(=O)CC[C@@H](NC(=O)CCCNC(=O)CCCNC(=O)[C@@H](CNC(=O)c1ccc([Si](F)(C(C)(C)C)C(C)(C)C)cc1)NC(=O)CN1CCN(CC(=O)O)CCN(CC(=O)O)CCN(CC(=O)O)CC1)C(=O)O)C(=O)O)C(=O)O)C(=O)O)C(=O)O)C(=O)O)C(=O)N[C@@H](CC(=O)O)C(=O)N[C@@H](Cc1ccccc1)C(N)=O [DOTA-MG-SiFA-45, DOTA-dap(SiFA)-(GABA)2-(γ-glu)6-F11N] |  |  | −1.98 ± 0.02 |  | 3.15 ± 0.12 nM
